This note sets out measurements from patent US20230391826A1, “COMPOSITIONS AND METHODS FOR TREATING DISEASES” (Sanford Burnham Prebys Medical Discovery Institute, priority 2020, published 2023).

The term solubility denotes the dissolved amount per volume that the medium holds. In general, Kd refers to the free concentration of one partner at which half of the binding sites on the other are occupied at equilibrium, for simple one-to-one binding. A lower Kd goes with tighter binding. By EC50 is commonly meant the concentration at which the effect is half-maximal.

In data set [1] the target is T1, EphA2 extracellular domain fused to Fc (EphA2-Fc) (Homo sapiens, UniProt P29317).
T1 construct: immobilized EphA2 extracellular domain fused to the Fc portion of an antibody (EphA2-Fc)
T1 sequence (P29317 24-537 limits assumed): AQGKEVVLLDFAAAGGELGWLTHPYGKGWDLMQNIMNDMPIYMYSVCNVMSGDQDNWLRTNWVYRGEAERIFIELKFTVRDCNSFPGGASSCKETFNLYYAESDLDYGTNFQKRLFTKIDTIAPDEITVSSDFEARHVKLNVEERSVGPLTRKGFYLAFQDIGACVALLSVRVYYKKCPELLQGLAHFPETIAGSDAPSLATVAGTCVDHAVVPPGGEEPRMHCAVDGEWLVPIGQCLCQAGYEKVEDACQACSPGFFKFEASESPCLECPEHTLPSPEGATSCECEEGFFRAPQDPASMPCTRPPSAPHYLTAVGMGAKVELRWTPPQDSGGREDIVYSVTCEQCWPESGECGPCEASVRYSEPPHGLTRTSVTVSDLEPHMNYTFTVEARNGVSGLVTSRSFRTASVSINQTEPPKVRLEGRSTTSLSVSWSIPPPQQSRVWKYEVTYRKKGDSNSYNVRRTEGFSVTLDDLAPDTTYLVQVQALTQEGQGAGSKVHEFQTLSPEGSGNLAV
As to the kind of experiment: ELISA: inhibition of ephrinA5-AP binding to immobilized EphA2-Fc. The source says:
FIG. 1A-1C illustrates an example of Potency and selectivity of EphA2-targeting dimeric peptides. (FIG. 1A) ELISAs comparing the ability of the peptides to inhibit binding of ephrin-A5 fused to alkaline phosphatase (ephrinA5-AP) to the immobilized EphA2 extracellular domain fused to the Fc portion of an antibody (EphA2-Fc). The graphs show averages ±SD from triplicate measurements from a representative experiment. IC50 values calculated from the fitted curves in each experiment are shown. Averages of IC50 values obtained from multiple experiments are shown in panel FIG. 1B and Table 3. The 10 nM peptide concentration is outlined in red. (FIG. 1B) Plot of the average IC50 values (listed in Table 3) for different ligands. […] (FIG. 1C) EphrinA5-AP binding to EphA receptors and ephrinB2-AP binding to EphB receptors in the presence of dimeric peptides representing each of the three configurations. Values are normalized to ephrin binding without peptide. The graphs show averages and SDs from triplicate measurements (with each measurement shown as a dot).
On the technique in general: An ELISA detects its analyte on a solid surface through an enzyme-linked reagent.

The nature of data set [2]: Peptide solubility in PBS/H2O/DMSO. The class given is physicochemical. On the procedure:
Peptide identity and purity are documented by mass spectrometry and high-performance liquid chromatography (HPLC). The peptide solubility values are determined. Concentrated peptide stocks are prepared in DMSO or H2O and stored frozen at −80° C.

The next data set addresses T2, EphA2 LBD (Homo sapiens, UniProt P29317).
T2 construct: made in house; host or cells: E. coli Origami 2(DE3)
As to the kind of experiment: Isothermal titration calorimetry (ITC) with soluble EphA2 LBD. The format is binding. On the procedure:
(FIG. 10A-10E) The EphA2 LBD was titrated at 200-250 μM into 10-12.5 μM of the indicated peptide.
For ITC, all peptides are dissolved in DMSO and both the EphA2 LBD and the peptides are diluted to obtain a final buffer containing 9.5 mM HEPES, pH 7.9, 95 mM NaCl, and 5% DMSO. The experiments are carried out at 296 K (23° C.) using an ITC200 calorimeter (Microcal). Two-microliter aliquots of a peptide solution are injected into the cell containing 205 μL EphA2 LBD. 200-400 μM peptides are titrated into 20-40 μM EphA2 LBD. Experimental data are analyzed using the Origin software package (Microcal). The integrated values for the reaction heats are normalized to the amount of injected peptide after blank subtraction.

The target of a further data set is EphA2 (Homo sapiens, UniProt P29317). Nature of the data set: EphA2 autophosphorylation on tyrosine 588 in PC3 cells (immunoblot dose-response). The class given is cell-based. The arrangement: EphA2 is the prevalent endogenously expressed EphA receptor in these cells; endogenous in cells; host or cells: PC3 prostate cancer cells. The conditions noted are these: read-out: EC50 PY588. On the procedure: (FIG. 2A) Dose-response curves for EphA2 autophosphorylation on tyrosine 588 (pY588; purple) and for downstream inhibition of AKT phosphorylation (magenta). PC3 cells were treated for 15 min with different concentrations of the indicated peptides. […] The graphs show quantifications from multiple blots (averages ±SE; the number of experiments used to generate each curve is shown in Table 3). […] (FIG. 2B) Examples of immunoblots of lysates from PC3 cells treated with the indicated concentrations of representative ligands. […] A white vertical line indicates removal of irrelevant lanes. […] The bars show averages ±SE, and the individual measurements are shown as black dots. […] Plots of Etop versus EC50 for pY588 in FIG. 2D and for pAKT inh in FIG. 2E. Averages ±SE are shown for the peptides and ephrinA1.
Sequence of EphA2 (P29317 24-976): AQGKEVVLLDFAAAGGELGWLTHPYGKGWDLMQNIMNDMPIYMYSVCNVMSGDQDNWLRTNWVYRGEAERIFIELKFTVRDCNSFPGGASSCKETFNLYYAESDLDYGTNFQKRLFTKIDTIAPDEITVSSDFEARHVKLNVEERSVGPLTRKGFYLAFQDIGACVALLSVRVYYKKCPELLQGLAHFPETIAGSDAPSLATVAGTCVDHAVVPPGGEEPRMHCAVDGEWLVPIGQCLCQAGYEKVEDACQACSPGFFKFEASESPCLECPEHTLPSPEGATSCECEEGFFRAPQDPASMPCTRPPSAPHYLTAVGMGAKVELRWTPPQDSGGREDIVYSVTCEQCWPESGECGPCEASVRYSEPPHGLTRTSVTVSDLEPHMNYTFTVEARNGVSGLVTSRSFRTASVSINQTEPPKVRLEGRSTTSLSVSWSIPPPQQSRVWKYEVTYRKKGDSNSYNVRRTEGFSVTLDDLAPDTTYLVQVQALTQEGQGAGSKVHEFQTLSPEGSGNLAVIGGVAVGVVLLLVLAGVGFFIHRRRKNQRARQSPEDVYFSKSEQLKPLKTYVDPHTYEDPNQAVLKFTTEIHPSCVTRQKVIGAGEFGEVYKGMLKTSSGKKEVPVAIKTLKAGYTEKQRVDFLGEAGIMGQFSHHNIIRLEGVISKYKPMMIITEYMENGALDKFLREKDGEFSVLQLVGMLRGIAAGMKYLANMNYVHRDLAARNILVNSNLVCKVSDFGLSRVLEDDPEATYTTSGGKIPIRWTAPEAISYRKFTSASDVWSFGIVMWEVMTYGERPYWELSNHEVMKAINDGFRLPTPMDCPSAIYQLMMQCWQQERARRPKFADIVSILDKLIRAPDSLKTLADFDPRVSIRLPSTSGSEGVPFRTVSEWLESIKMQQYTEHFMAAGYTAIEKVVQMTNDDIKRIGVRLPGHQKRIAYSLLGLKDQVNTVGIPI
To examine the agonistic properties of the different dimeric peptide ligands, EphA2 autophosphorylation on tyrosine 588 (Y588) was measured, which is indicative of receptor activation and mediates binding of SH2 domain-containing proteins that link EphA2 to various downstream signaling pathways (FIG. 7). For these experiments, PC3 prostate cancer cells were stimulated with the dimeric peptides because EphA2 is the prevalent endogenously expressed EphA receptor in these cells, allowing comparisons with ephrins.
In general terms: Immunoblotting shows a protein as a band on a membrane.

Where [3] appears, read: Table 3, inhibition of EphA2-ephrinA5 interaction, averages ± SD, read-out: ICsa (nM) by ELISA.
The mark [4] stands for this setting: DMSO, Table 4, third of PBS/H20/DMSO, read-out: Solubility in DMSO.
The mark [5] stands for this setting: H2O, Table 4, second of PBS/H20/DMSO, read-out: Solubility in H20.
Setting [6] is: PBS, Table 4, first of PBS/H20/DMSO, read-out: Solubility in PBS.
Setting [7] is: DMSO, third of PBS/H2O/DMSO, read-out: Solubility in DMSO.
The mark [8] stands for this setting: H2O, second of PBS/H2O/DMSO, read-out: Solubility in H2O.
[9] abbreviates: PBS, first of PBS/H2O/DMSO, read-out: Solubility in PBS.

Structures are written as SMILES. In brackets after ≈: the same amount, converted by molar mass. Like-named read-outs stand apart in the source and are kept apart here. Where a SMILES comes first, the peptide text is derived from it. Bridges are numbered along the chain shown (N, C = ends). Roman numbers before positions name the chains, in order. [ ]: non-standard residue; d: D form. βAla = NCCC(=O)O

T2 sequence (P29317 28-200): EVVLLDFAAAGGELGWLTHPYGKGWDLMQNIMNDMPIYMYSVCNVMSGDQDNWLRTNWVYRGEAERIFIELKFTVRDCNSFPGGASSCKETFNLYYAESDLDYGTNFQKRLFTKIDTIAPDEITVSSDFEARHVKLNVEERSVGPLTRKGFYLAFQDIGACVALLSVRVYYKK

`CC(C)C[C@H](NC(=O)[C@H](Cc1c[nH]c2ccccc12)NC(=O)CCN)C(=O)N[C@@H](C)C(=O)N[C@@H](Cc1ccc(O)cc1)C(=O)N1CCC[C@H]1C(=O)N[C@@H](CC(=O)O)C(=O)N[C@@H](CO)C(=O)N[C@H](C(=O)N1CCC[C@H]1C(=O)N[C@@H](Cc1ccc(O)cc1)C(=O)N[C@@H](CCCNC(=N)N)C(=O)N1CCC[C@H]1C(=O)N[C@@H](CCCCN)C(=O)NCCCC[C@H](NC(=O)[C@H](CCCCN)NC(=O)[C@@H]1CCCN1C(=O)[C@H](CCCNC(=N)N)NC(=O)[C@H](Cc1ccc(O)cc1)NC(=O)[C@@H]1CCCN1C(=O)[C@@H](NC(=O)[C@H](CO)NC(=O)[C@H](CC(=O)O)NC(=O)[C@@H]1CCCN1C(=O)[C@H](Cc1ccc(O)cc1)NC(=O)[C@H](C)NC(=O)[C@H](CC(C)C)NC(=O)[C@H](Cc1c[nH]c2ccccc12)NC(=O)CCN)C(C)C)C(=O)O)C(C)C` [compound 3]: in data set [1] (setting [3]), the IC50 is 0.77 nM. In addition, the solubility was 10000 µg/mL (≈ 2910 µM) in data set [2] (setting [4]), 5000 µg/mL (≈ 1460 µM) in data set [2] (setting [5]) and below 100 µg/mL in data set [2] (setting [6]).

The molecule `CC(C)C[C@H](NC(=O)[C@H](Cc1c[nH]c2ccccc12)NC(=O)[C@H](C)NC(=O)CNC(=O)[C@@H](N)CSSC[C@H](N)C(=O)NCC(=O)N[C@@H](C)C(=O)N[C@@H](Cc1c[nH]c2ccccc12)C(=O)N[C@@H](CC(C)C)C(=O)N[C@@H](C)C(=O)N[C@@H](Cc1ccc(O)cc1)C(=O)N1CCC[C@H]1C(=O)N[C@@H](CC(=O)O)C(=O)N[C@@H](CO)C(=O)N[C@H](C(=O)N1CCC[C@H]1C(=O)N[C@@H](Cc1ccc(O)cc1)C(=O)N[C@@H](CCCNC(=N)N)C(=O)O)C(C)C)C(=O)N[C@@H](C)C(=O)N[C@@H](Cc1ccc(O)cc1)C(=O)N1CCC[C@H]1C(=O)N[C@@H](CC(=O)O)C(=O)N[C@@H](CO)C(=O)N[C@H](C(=O)N1CCC[C@H]1C(=O)N[C@@H](Cc1ccc(O)cc1)C(=O)N[C@@H](CCCNC(=N)N)C(=O)O)C(C)C` [compound 4] (I: H-CGAWLAYPDSVPYR-OH / II: H-CGAWLAYPDSVPYR-OH; disulfide I:1-II:1; C-terminus assumed) yielded a dissociation constant (Kd) on EphA2 LBD of 104 ± 1 nM. Also, the IC50 in data set [1] (inhibition of ephrin-A5 binding to EphA2, number of experiments in parentheses, read-out: Inc50 (nM) by ELISA) was 7.9 ± 1.9 nM. Besides, the solubility is 10000 µg/mL (≈ 3130 µM) in data set [2] (setting [4]); 10000 µg/mL (≈ 3130 µM) in data set [2] (setting [7]); below 100 µg/mL in data set [2] (setting [8]); below 100 µg/mL in data set [2] (setting [6]); below 100 µg/mL in data set [2] (setting [9]); below 100 µg/mL in data set [2] (water, Table 4, second of PBS/H20/DMSO, read-out: Solubility in H20).

Regarding `CC(C)C[C@H](NC(=O)[C@H](Cc1c[nH]c2ccccc12)NC(=O)[C@H](C)NC(=O)CNC(=O)[C@@H](N)Cc1cn(CCCC[C@H](N)C(=O)N[C@@H](C)C(=O)N[C@@H](Cc2c[nH]c3ccccc23)C(=O)N[C@@H](CC(C)C)C(=O)N[C@@H](C)C(=O)N[C@@H](Cc2ccc(O)cc2)C(=O)N2CCC[C@H]2C(=O)N[C@@H](CC(=O)O)C(=O)N[C@@H](CO)C(=O)N[C@H](C(=O)N2CCC[C@H]2C(=O)N[C@@H](Cc2ccc(O)cc2)C(=O)N[C@@H](CCCNC(=N)N)C(=O)N2CCC[C@H]2C(=O)N[C@@H](CCCCN)C(N)=O)C(C)C)nn1)C(=O)N[C@@H](C)C(=O)N[C@@H](Cc1ccc(O)cc1)C(=O)N1CCC[C@H]1C(=O)N[C@@H](CC(=O)O)C(=O)N[C@@H](CO)C(=O)N[C@H](C(=O)N1CCC[C@H]1C(=O)N[C@@H](Cc1ccc(O)cc1)C(=O)N[C@@H](CCCNC(=N)N)C(=O)N1CCC[C@H]1C(=O)N[C@@H](CCCCN)C(N)=O)C(C)C` [compound 7], in data set [1] (setting [3]), the IC50 came to 0.54 nM. Further, on EphA2, the EC50 was determined as 0.22 ± 0.04 nM. Further, the solubility in data set [2] (setting [7]) was 10000 µg/mL (≈ 2750 µM); in data set [2] (setting [5]) it was 5000 µg/mL (≈ 1380 µM); in data set [2] (setting [8]), 5000 µg/mL (≈ 1380 µM); in data set [2] (setting [6]), 1000 µg/mL (≈ 275 µM); in data set [2] (setting [9]), below 100 µg/mL.

On to `CC(C)C[C@H](NC(=O)[C@H](Cc1c[nH]c2ccccc12)NC(=O)CCN)C(=O)N[C@@H](C)C(=O)N[C@@H](Cc1ccc(O)cc1)C(=O)N1CCC[C@H]1C(=O)N[C@@H](CC(=O)O)C(=O)N[C@@H](CO)C(=O)N[C@H](C(=O)N1CCC[C@H]1C(=O)N[C@@H](Cc1ccc(O)cc1)C(=O)N[C@@H](CCCNC(=N)N)C(=O)N1CCC[C@H]1C(=O)N[C@@H](CCCCN)C(=O)NCC(=O)NCC(=O)N[C@@H](C)C(=O)N[C@@H](Cc1c[nH]c2ccccc12)C(=O)N[C@@H](CC(C)C)C(=O)N[C@@H](C)C(=O)N[C@@H](Cc1ccc(O)cc1)C(=O)N1CCC[C@H]1C(=O)N[C@@H](CC(=O)O)C(=O)N[C@@H](CO)C(=O)N[C@H](C(=O)N1CCC[C@H]1C(=O)N[C@@H](Cc1ccc(O)cc1)C(=O)N[C@@H](CCCNC(=N)N)C(=O)N1CCC[C@H]1C(=O)N[C@@H](CCCCN)C(N)=O)C(C)C)C(C)C` [compound 8, linear dimer (head-to-tail)] (H-[βAla]WLAYPDSVPYRPKGGAWLAYPDSVPYRPK-NH2; N-terminus assumed), for which the “ICsa (nM) by ELISA” value in data set [1] (Table 3, inhibition of EphA2-ephrinA5 interaction, averages ± SD) is “subnanomolar”. Also, the solubility in data set [2] (setting [7]) came to 10000 µg/mL (≈ 2920 µM); in data set [2] (setting [5]), 5000 µg/mL (≈ 1460 µM); in data set [2] (setting [8]), 5000 µg/mL (≈ 1460 µM); in data set [2] (setting [9]) it was 1000 µg/mL (≈ 292 µM).

Turning to `O=C(O)CCCC[C@@H]1SC[C@@H]2NC(=O)N[C@@H]21` [free biotin, biotin, reference compound], the “binding to the EphA2 LBD by ITC” value on EphA2 LBD (high biotin concentration (1 mM)) is on record as “did not detect binding”.
